Test results taken from patent publication US8889670B2, “Heterocyclic compounds which modulate the CB2 receptor” (Boehringer Ingelheim International GmbH, priority 2009, dated 2014).
Where two headings read alike, the source gives them in different places.

Biological target: T1, human CB2R (Homo sapiens, UniProt P34972)
T1 construct: host or cells: CHO cells
Experiment: CB2R mediated modulation of cAMP synthesis (forskolin-stimulated cAMP, CHO cells expressing human CB2R)
Assay type: cell-based
Protocol: B. CB2R Mediated Modulation of cAMP Synthesis:
Compounds of the invention were evaluated for their CB2 agonist or inverse agonistic activity in accordance with the following experimental method.
CHO cells expressing human CB2R (Euroscreen) were plated at a density of 5000 cells per well in 384 well plates and incubated overnight at 37° C. After removing the media, the cells were treated with test compounds diluted in stimulation buffer containing 1 mM IBMX, 0.25% BSA and 10 uM Forskolin. The assay was incubated for 30 minutes at 37° C. Cells were lysed and the cAMP concentration was measured using DiscoverX-XS cAMP kit, following the manufacturer's protocol. In this setting, agonists will decrease forskolin induced production of cAMP while inverse agonists will further increase forskolin induced production of cAMP. EC50 of agonists were calculated as follows. The maximal amount of cAMP produced by forskolin compared to the level of cAMP inhibited by 1 uM CP55940 is defined as 100%. […] Data was analyzed using a four-parameter logistic model. (Model 205 of XLfit 4.0).

[1] = agonist EC50, inhibition of forskolin-stimulated cAMP synthesis, CHO cells expressing human CB2R, mean, read-out: CB2 CAMP @ EC50 nM (mean)

T1 sequence (P34972 whole entry): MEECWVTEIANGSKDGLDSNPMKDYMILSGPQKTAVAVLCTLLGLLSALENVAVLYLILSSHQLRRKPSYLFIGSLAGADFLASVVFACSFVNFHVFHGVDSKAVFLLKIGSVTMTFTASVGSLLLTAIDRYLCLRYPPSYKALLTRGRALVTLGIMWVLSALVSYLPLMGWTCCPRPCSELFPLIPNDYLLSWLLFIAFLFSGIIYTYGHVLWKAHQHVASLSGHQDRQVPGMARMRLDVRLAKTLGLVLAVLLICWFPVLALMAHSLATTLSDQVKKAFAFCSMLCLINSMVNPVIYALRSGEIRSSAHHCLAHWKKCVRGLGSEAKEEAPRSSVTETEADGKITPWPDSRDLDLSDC

SMILES | EC50 [nM] | EC50 [1] [nM]
CC(C)(C)c1cc(NC(=O)[C@@H]2CCCCN2C(=O)C2CCCCCC2)no1 | 8.2 | 
COc1ccc(S(=O)(=O)N2CCCC[C@H]2C(=O)Nc2cc(C(C)(C)C)on2)cc1 [(S)-1-(4-Methoxy-benzenesulfonyl)-piperidine-2-carboxylic acid (5-tert-butyl-isoxazol-3-yl)-amide] | 27 | 
O=C(Nc1nc2ccc(Cl)cc2s1)[C@@H]1CCCCN1CC1CCOCC1 [(S)-1-(Tetrahydro-pyran-4-ylmethyl)-piperidine-2-carboxylic acid (6-chloro-benzothiazol-2-yl)-amide] |  | 131
O=C(Nc1nc2c(F)cccc2s1)[C@@H]1CCCCN1C(=O)N1CCS(=O)(=O)CC1 [(S)-1-(1,1-Dioxo-1λ^6-thiomorpholine-4-carbonyl)-piperidine-2-carboxylic acid (4-fluoro-benzothiazol-2-yl)-amide] |  | 59
CC(C)(C)c1cc(NC(=O)C2CCCN(c3ncc(C(F)(F)F)cc3Cl)C2)no1 (centres unmarked) [3′-Chloro-5′-trifluoromethyl-3,4,5,6-tetrahydro-2H-[1,2′]bipyridinyl-3-carboxylic acid (5-tert-butyl-isoxazol-3-yl)-amide] | 113 | 
O=C(Nc1nsc(-c2ccccc2)n1)[C@@H]1CCCCN1CC1CCOCC1 [(S)-1-(Tetrahydro-pyran-4-ylmethyl)-piperidine-2-carboxylic acid (5-phenyl-1,2,4-thiadiazol-3-yl)-amide] |  | 14
O=C(Nc1nc(-c2ccccc2)ns1)[C@@H]1CCCCN1CC1CCOCC1 [(S)-1-(Tetrahydro-pyran-4-ylmethyl)-piperidine-2-carboxylic acid (3-phenyl-1,2,4-thiadiazol-5-yl)-amide] |  | 1.2
O=C(Nc1nc(-c2ccccc2)ns1)[C@@H]1CCCCN1c1ncc(C(F)(F)F)cc1Cl [(S)-3′-Chloro-5′-trifluoromethyl-3,4,5,6-tetrahydro-2H-1,2′-bipyridinyl-2-carboxylic acid (3-phenyl-1,2,4-thiadiazol-5-yl)-amide] |  | 11
O=C(Nc1nc2cc(Cl)ccc2s1)[C@@H]1CCCCN1CC1CCOCC1 [(S)-1-(Tetrahydro-pyran-4-ylmethyl)-piperidine-2-carboxylic acid (5-chloro-benzothiazol-2-yl)-amide] | 0.2 | 
CCn1nc(NC(=O)[C@@H]2CCCCN2C(=O)CC2CCS(=O)(=O)C2)nc1-c1ccccc1 (stereo partly drawn) [(S)-1-[2-(1,1-Dioxo-tetrahydro-1λ^6-thiophen-3-yl)-acetyl]-piperidine-2-carboxylic acid (1-ethyl-5-phenyl-1H-1,2,4-triazol-3-yl)-amide] |  | 365
CC(C)(C)c1cc(NC(=O)[C@@H]2CCCCN2Cc2ccc(F)c(F)c2)no1 [(S)-1-(3,4-Difluoro-benzyl)-piperidine-2-carboxylic acid (5-tert-butyl-isoxazol-3-yl)-amide] | 0.58 | 
CC(C)(C)c1cc(NC(=O)[C@@H]2CCCCN2C(=O)CN2CCC(F)(F)C2)no1 [(S)-1-[2-(3,3-Difluoro-pyrrolidin-1-yl)-acetyl]-piperidine-2-carboxylic acid (5-tert-butyl-isoxazol-3-yl)-amide] | 2.9 | 
COc1ccc(-c2nsc(NC(=O)[C@@H]3CCCCN3C(=O)N3CCS(=O)(=O)CC3)n2)cc1 [(S)-1-(1,1-Dioxo-1λ^6-thiomorpholine-4-carbonyl)-piperidine-2-carboxylic acid [3-(4-methoxy-phenyl)-[1,2,4]thiadiazol-5-yl]-amide] |  | 20
CC(C)(C)c1nnc(NC(=O)[C@@H]2CCCCN2CC2CCOCC2)s1 [(S)-1-(Tetrahydro-pyran-4-ylmethyl)-piperidine-2-carboxylic acid (5-tert-butyl-1,3,4-thiadiazol-2-yl)-amide] |  | 1.6
O=C(Nc1nc2cc(Cl)ccc2s1)[C@@H]1CCCCN1C1CCOCC1 [(S)-1-(Tetrahydro-pyran-4-yl)-piperidine-2-carboxylic acid (5-chloro-benzothiazol-2-yl)-amide] |  | 206
CCn1nc(NC(=O)[C@@H]2CCCCN2C(=O)CN2CCC(F)(F)C2)nc1-c1ccccc1 [(S)-1-[2-(3,3-Difluoro-pyrrolidin-1-yl)-acetyl]-piperidine-2-carboxylic acid (1-ethyl-5-phenyl-1H-1,2,4-triazol-3-yl)-amide] |  | 262
O=C(Nc1nc(-c2ccc(F)c(F)c2)cs1)[C@@H]1CCCCN1CC1CCOCC1 [(S)-1-(Tetrahydro-pyran-4-ylmethyl)-piperidine-2-carboxylic acid [4-(3,4-difluoro-phenyl)-thiazol-2-yl]-amide] | 3.6 | 
CC(C)(C)c1cc(NC(=O)[C@@H]2CCCCN2C(=O)C2CCC(F)(F)CC2)no1 [(S)-1-(4,4-Difluoro-cyclohexanecarbonyl)-piperidine-2-carboxylic acid (5-tert-butyl-isoxazol-3-yl)-amide] | 4.6 | 

SMILES | EC50 [nM] | EC50 [1] [nM]
O=C(Nc1ccc(C(F)(F)F)cn1)[C@@H]1CCCCN1CC1CCOCC1 [(S)-1-(Tetrahydro-pyran-4-ylmethyl)-piperidine-2-carboxylic acid (5-trifluoromethyl-pyridin-2-yl)-amide] | 69 | 
CC(C)c1nsc(NC(=O)[C@@H]2CCCCN2CC2CCOCC2)n1 [(S)-1-(Tetrahydro-pyran-4-ylmethyl)-piperidine-2-carboxylic acid (3-isopropyl-1,2,4-thiadiazol-5-yl)-amide] |  | 208
CC(C)(C)c1cc(NC(=O)C2CCCCN2C(=O)C2CCC(F)(F)CC2)no1 (centres unmarked) [1-(4,4-Difluoro-cyclohexanecarbonyl)-piperidine-2-carboxylic acid (5-tert-butyl-isoxazol-3-yl)-amide] | 11 | 
CC(C)(C)OC(=O)N1CCCC[C@H]1C(=O)Nc1nnc(C(C)(C)C)s1 [(S)-2-(5-tert-Butyl-1,3,4-thiadiazol-2-ylcarbamoyl)-piperidine-1-carboxylic acid tert-butyl ester] |  | 495
O=C(Nc1ccc(C(F)(F)F)cn1)[C@@H]1CCCCN1C(=O)C1CCC(F)(F)CC1 [(S)-1-(4,4-Difluoro-cyclohexanecarbonyl)-piperidine-2-carboxylic acid (5-trifluoromethyl-pyridin-2-yl)-amide] |  | 282
CC(C)(C)OC(=O)N1CCCC[C@H]1C(=O)Nc1cc(C(C)(C)C)on1 [(S)-2-(5-tert-Butyl-isoxazol-3-ylcarbamoyl)-piperidine-1-carboxylic acid tert-butyl ester] |  | 279
CC(C)(C)c1cc(NC(=O)[C@@H]2CCCCCN2C(=O)N2CCS(=O)(=O)CC2)no1 [(S)-1-(1,1-Dioxo-1λ^6-thiomorpholine-4-carbonyl)-azepane-2-carboxylic acid (5-tert-butyl-isoxazol-3-yl)-amide] | 15 | 
CC(C)(C)c1cc(NC(=O)C2CCCCN2C(=O)c2ccc(C(F)(F)F)cc2)no1 (centres unmarked) [1-(4-Trifluoromethyl-benzoyl)-piperidine-2-carboxylic acid (5-tert-butyl-isoxazol-3-yl)-amide] |  | 395
CC(C)(C)c1cc(NC(=O)[C@@H]2CCCCN2C(=O)C[C@H]2CCCO2)no1 [(S)-1-((R)-2-Tetrahydro-furan-2-yl-acetyl)-piperidine-2-carboxylic acid (5-tert-butyl-isoxazol-3-yl)-amide] | 94 | 
O=C(NCCSCc1c(F)cccc1Cl)[C@@H]1CCCCN1C(=O)N1CCS(=O)(=O)CC1 [(S)-1-(1,1-Dioxo-1λ^6-thiomorpholine-4-carbonyl)-piperidine-2-carboxylic acid [2-(2-chloro-6-fluoro-benzylsulfanyl)-ethyl]-amide] |  | 130
O=C(Nc1nc(-c2ccc(F)cc2F)cs1)[C@@H]1CCCCN1C(=O)N1CCS(=O)(=O)CC1 [(S)-1-(1,1-Dioxo-1λ^6-thiomorpholine-4-carbonyl)-piperidine-2-carboxylic acid [4-(2,4-difluoro-phenyl)-thiazol-2-yl]-amide] | 22 | 
CC(C)(C)c1cc(NC(=O)[C@@H]2CCCCN2S(=O)(=O)c2ccc(Cl)cc2)no1 [(S)-1-(4-Chloro-benzenesulfonyl)-piperidine-2-carboxylic acid (5-tert-butyl-isoxazol-3-yl)-amide] | 21 | 
CC(C)(C)c1cc(NC(=O)[C@@H]2CCCCN2C(=O)N2CCC(F)(F)CC2)no1 [(S)-1-(4,4-Difluoro-piperidine-1-carbonyl)-piperidine-2-carboxylic acid (5-tert-butyl-isoxazol-3-yl)-amide] | 3.7 | 
CC(C)(C)c1cc(NC(=O)[C@@H]2CCCCN2C(=O)c2ccc(F)cc2)no1 [(S)-1-(4-Fluoro-benzoyl)-piperidine-2-carboxylic acid (5-tert-butyl-isoxazol-3-yl)-amide] | 2.2 | 
CC(C)(C)c1cc(NC(=O)[C@@H]2CCCCN2CC2CCOCC2)sn1 [(S)-1-(Tetrahydro-pyran-4-ylmethyl)-piperidine-2-carboxylic acid (3-tert-butyl-isothiazol-5-yl)-amide] | 0.3 | 
CC(C)(C)c1cc(NC(=O)C2CCCN(C(=O)C3CCC(F)(F)CC3)C2)no1 (centres unmarked) [1-(4,4-Difluoro-cyclohexanecarbonyl)-piperidine-3-carboxylic acid (5-tert-butyl-isoxazol-3-yl)-amide] | 23 | 
CC(C)(C)c1cc(NC(=O)C2CN(C(=O)c3ccc(C(F)(F)F)cc3)CCO2)no1 (centres unmarked) [4-(4-Trifluoromethyl-benzoyl)-morpholine-2-carboxylic acid (5-tert-butyl-isoxazol-3-yl)-amide] | 85 | 
